Among the data in US20240067662A1, “KRAS INHIBITORS” (Bristol-Myers Squibb Company, priority 2022, published 2024) are IC50 values, retold here.

SMILES strings stand for the structures.

This test deals with GMPPNP-loaded KRAS G12C (Homo sapiens, UniProt P01116, G12C). The test is described as follows: KRAS G12C RAF Disruption Assay (HTRF). To be noted: recombinant GMPPNP-loaded KRAS G12C (5 nM), 20 min with compound; GST-RAF1 RBD (9 nM); HTRF signal; read-out: KRASG12C RAF Disruption Assay (IC50). In kind it is biochemical. On the procedure:
KRAS^G12C RAF Disruption Assay
This is a functional assay that measures activity of compounds against KRAS-G12C^(ON), i.e., the active form of KRAS G12C. Recombinant GMPPNP-loaded KRAS G12C (5 nM) was treated with compound at room temperature for 20 minutes in assay buffer (50 mM Tris pH 7.5, 100 mM NaCl, 1 mM MgCl2, 1 mM DTT, 100ug/ml BSA). Recombinant GST-RAF1 RBD (9 nM) was added, and the reaction mixture was incubated for 20 minutes. SA-Tb (0.25 nM) was added, and the reaction mixture was incubated for 3 hours. HTRF signal was measured (PerkinElmer Envision), the signal ratio (λem 520/λem 495) was calculated, and IC50 values were calculated from the dose-response curve.
In general terms: TR-FRET usually uses a lanthanide donor and a delayed reading to cut background.

GMPPNP-loaded KRAS G12C, sequence (P01116 1-188 isoform P01116-2 G12C): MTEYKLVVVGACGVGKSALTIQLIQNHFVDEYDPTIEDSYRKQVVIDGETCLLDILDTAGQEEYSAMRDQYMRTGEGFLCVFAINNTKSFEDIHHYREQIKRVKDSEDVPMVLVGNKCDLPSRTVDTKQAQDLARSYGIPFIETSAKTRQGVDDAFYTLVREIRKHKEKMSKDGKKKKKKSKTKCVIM

As for `C#Cc1cccc2cccc(-c3ncc4c(N5CCN(C(=O)/C(Cl)=C/c6ccccn6)CC5)nc(OC[C@@]56CCCN5C[C@H](F)C6)nc4c3F)c12` [Compound 126, (Z)-2-chloro-1-(4-(7-(8-ethynylnaphthalen-1-yl)-8-fluoro-2-(((2R, 7aS)-2-fluorotetrahydro-1H-pyrrolizin-7a(5H)-yl)methoxy)pyrido[4,3-d]pyrimidin-4-yl)piperazin-1-yl)-3-(pyridin-2-yl)prop-2-en-1-one], the IC50 stood at 47000 nM.

As to `C#Cc1c(F)ccc2cc(O)cc(-c3ncc4c(N5CCN(C(=O)/C(F)=C/c6cccnn6)CC5)nc(OC[C@@]56CCCN5C[C@H](F)C6)nc4c3F)c12` [Example 55, (Z)-1-(4-(7-(8-ethynyl-7-fluoro-3-hydroxynaphthalen-1-yl)-8-fluoro-2-(((2R, 7aS)-2-fluorotetrahydro-1H-pyrrolizin-7a(5H)-yl)methoxy)pyrido[4,3-d]pyrimidin-4-yl)piperazin-1-yl)-2-fluoro-3-(pyridazin-3-yl)prop-2-en-1-one], the IC50 was 2 nM.

As to `C#Cc1c(F)ccc2cc(O)cc(-c3ncc4c(N5C[C@H]6CC[C@@H](C5)N6C(=O)/C(F)=C/c5nccs5)nc(OC[C@@]56CCCN5C[C@H](F)C6)nc4c3F)c12` [Compound 1, (Z)-1-((1R, 5S)-3-(7-(8-ethynyl-7-fluoro-3-hydroxynaphthalen-1-yl)-8-fluoro-2-(((2R, 7aS)-2-fluorotetrahydro-1H-pyrrolizin-7a(5H)-yl)methoxy)pyrido[4,3-d]pyrimidin-4-yl)-3,8-diazabicyclo[3.2.1]octan-8-yl)-2-fluoro-3-(thiazol-2-yl)prop-2-en-1-one], the IC50 worked out at 27 nM.

For the compound `N#CC[C@H]1CN(c2nc(OC[C@@]34CCCN3C[C@H](F)C4)nc3c(F)c(-c4ccccc4C4CC4)ncc23)CCN1C(=O)/C(F)=C/c1ccccn1` [Compound 79, 2-((2S)-4-(7-(2-cyclopropylphenyl)-8-fluoro-2-(((2R, 7aS)-2-fluorotetrahydro-1H-pyrrolizin-7a(5H)-yl)methoxy)pyrido[4,3-d]pyrimidin-4-yl)-1-((Z)-2-fluoro-3-(pyridin-2-yl)acryloyl)piperazin-2-yl)acetonitrile], the IC50 was 65 nM.

With `CN(c1nc(OC[C@@]23CCCN2C[C@H](F)C3)nc2c(F)c(-c3cccc4cccc(C#N)c34)ncc12)[C@@H]1CCN(C(=O)/C(F)=C/c2nccs2)C1` [Compound 114, 8-(8-fluoro-4-(((R)-1-((Z)-2-fluoro-3-(thiazol-2-yl)acryloyl)pyrrolidin-3-yl)(methyl)amino)-2-(((2R, 7aS)-2-fluorotetrahydro-1H-pyrrolizin-7a(5H)-yl)methoxy)pyrido[4,3-d]pyrimidin-7-yl)-1-naphthonitrile], the IC50 is 719 nM.

With `N#CC[C@H]1CN(c2nc(OC[C@@]34CCCN3C[C@H](F)C4)nc3c(F)c(-c4cc(F)ccc4C(F)(F)F)ncc23)CCN1C(=O)/C(F)=C/c1ccccn1` [Example 44, 2-((S)-1-((Z)-2-fluoro-3-(pyridin-2-yl)acryloyl)-4-(8-fluoro-7-(5-fluoro-2-(trifluoromethyl)phenyl)-2-(((2R, 7aS)-2-fluorotetrahydro-1H-pyrrolizin-7a(5H)-yl)methoxy)pyrido[4,3-d]pyrimidin-4-yl)piperazin-2-yl)acetonitrile], the IC50 was 360 nM.

Turning to `N#CC[C@H]1CN(c2nc(OC[C@@]34CCCN3C[C@H](F)C4)nc3c(F)c(-c4cc(O)ccc4C(F)(F)F)ncc23)CCN1C(=O)/C(F)=C/c1nccs1` [Compound 95, 2-((S)-4-(8-fluoro-2-(((2R, 7aS)-2-fluorotetrahydro-1H-pyrrolizin-7a(5H)-yl)methoxy)-7-(5-hydroxy-2-(trifluoromethyl)phenyl)pyrido[4,3-d]pyrimidin-4-yl)-1-((Z)-2-fluoro-3-(thiazol-2-yl)acryloyl)piperazin-2-yl)acetonitrile], the 50% inhibitory concentration (IC50) stood at 14 nM.

The term IC50 denotes the point on the concentration scale where inhibition reaches its midpoint.
